Test results from patent publication US4731109A, “Herbicidal 2-haloacetanilides” (Monsanto Company, priority 1982, dated 1988).
Where two headings read alike, the source gives them in different places.

What was measured:
Barnyardgrass = experiment: Resistance to leaching and resulting herbicidal efficacy; format: in vivo; conditions: for inhibition at 140 g/ha / inhibition at 560 g/ha / inhibition at 2200 g/ha / inhibition at 2360 g/ha: Echinochloa crus-galli, read-out: Percent Inhibition
Protocol: Laboratory tests were conducted to determine the resistance of herbicides according to this invention to leaching into the soil and resulting herbicidal efficacy. […] The pots containing the treated soil were subjected to leaching by placing on a turntable which rotated under two nozzle tips of a water container calibrated to deliver one inch (2.5 cm) of water per hour simulating rainfall. Leaching rates were adjusted by varying the amount of time on the turntable. Water was delivered to the soil in the pots and allowed to percolate through the filter paper and drainage holes. The pots were then allowed to sit for three days at ambient room temperature. The treated soil in the pots was then removed, crumbled and placed as a surface layer on top of other pots containing the above soils seeded with barnyardgrass seeds. The pots were then placed on greenhouse benches, sub-irrigated and allowed to grow for 2-3 weeks. Visual ratings of percent growth inhibition compared to control (untreated) pots and fresh weights for barnyardgrass were recorded; the data from the control represents six replications and that for the test compounds three replications; test data are shown in Table XVIII.

cotton = experiment: Greenhouse pre-emergence GR15/GR85 selectivity test; format: in vivo
Excerpt: A good grade of top soil is placed in aluminum pans and compacted to a depth of three-eighths to one-half inch from the top of the pan. On the top of the soil is placed a number of seeds or vegetative propagules of various plant species. The soil required to level fill the pans after seeding or adding vegetative propagules is weighed into a pan. The soil and a known amount of the active ingredient applied in a solvent or as a wettable powder suspension are thoroughly mixed, and used to cover the prepared pans. After treatment, the pans are given an initial overhead irrigation of eater, equivalent to one-fourth inch (0.64 cm) rainfall, then watered by subirrigation as need to give adequate moisture for germination and growth. As an alternative procedure, the overhead irrigation may be omitted. Observations are made about 2-3 weeks after seeding and treatment.
In the discussion and tables of data below, reference is made to herbicide application rates symbolized as "GR15 " and "GR85 "; these rates are given in kilograms per hectare (kg/ha) which are convertible into pounds per acre (lbs/A) by dividing the kg/ha rate by 1.12.
A further guide to the effectiveness of a chemical as a selective herbicide is the "selectivity factor" ("SF") for a herbicide in given crops and weeds. The selectivity factor is a measure of the relative degree of crop safety and weed injury and is expressed in terms of the GR15 /GR85 ratio, i.e., the GR15 rate for the crop divided by the GR85 rate for the weed, both rates in kg/ha (lb/A). In the tables below, selectivity factors are shown in parenthesis following the GR85 rate for each weed; the symbol "NS" indicates "non-selective". Marginal or undetermined selectivity is indicated by a dash (--).
Additionally, pre-emergence herbicidal data from other tests have established that compounds according to this invention also selectively suppress quackgrass, yellow nutsedge and/or other weeds in one or more of the crops cotton, peanuts, bush beans and/or rape. For example, in Table VI are presented data showing the herbicidal selectivity of the compounds of Examples 1 and 2 against quackgrass in rape and snap beans. Unless otherwise noted; greenhouse tests in Table VI and in other tables below involved herbicide treatments by soil incorporation and an initial overhead irrigation followed by subirrigation as described above.
In one multi-crop test in the greenhouse, the compounds of Examples 1, 9, and 10 were tested against yellow nutsedge in cotton, soybeans, corn and rice; each compound was non-selective with respect to yellow nutsedge in rice. However, markedly high selectivities for yellow nutsedge in cotton, soybeans and corn were shown for each of the compounds in the test; the respective GR15 and GR85 rates for these compounds are shown in Table XII selectivity factors are shown in parenthesis after each crop.

[1] = Drummer silt clay, 0.14 Kg/Ha, rain 0 cm
[2] = Drummer silt clay, 0.14 Kg/Ha, rain 1.27 cm
[3] = Drummer silt clay, 0.14 Kg/Ha, rain 5.08 cm
[4] = Drummer silt clay, 0.14 Kg/Ha, rain 10.16 cm
[5] = Drummer silt clay, 0.56 Kg/Ha, rain 0 cm
[6] = Drummer silt clay, 0.56 Kg/Ha, rain 1.27 cm
[7] = Drummer silt clay, 0.56 Kg/Ha, rain 5.08 cm
[8] = Drummer silt clay, 0.56 Kg/Ha, rain 10.16 cm
[9] = Drummer silt clay, 2.2 Kg/Ha, rain 0 cm
[10] = Drummer silt clay, 2.2 Kg/Ha, rain 1.27 cm
[11] = Drummer silt clay, 2.2 Kg/Ha, rain 5.08 cm
[12] = Drummer silt clay, 2.2 Kg/Ha, rain 10.16 cm
[13] = Ray silt loam, 0.14 Kg/Ha, rain 0 cm
[14] = Ray silt loam, 0.14 Kg/Ha, rain 1.27 cm
[15] = Ray silt loam, 0.14 Kg/Ha, rain 5.08 cm
[16] = Ray silt loam, 0.56 Kg/Ha, rain 0 cm
[17] = Ray silt loam, 0.56 Kg/Ha, rain 1.27 cm
[18] = Ray silt loam, 0.56 Kg/Ha, rain 5.08 cm
[19] = Ray silt loam, 0.56 Kg/Ha, rain 10.16 cm
[20] = Ray silt loam, 2.2 Kg/Ha, rain 0 cm
[21] = Ray silt loam, 2.2 Kg/Ha, rain 1.27 cm
[22] = Ray silt loam, 2.2 Kg/Ha, rain 5.08 cm
[23] = Ray silt loam, 2.2 Kg/Ha, rain 10.16 cm
[24] = Ray silt loam, 0.14 Kg/Ha, rain 10.16 cm
[25] = Ray silt loam, 2.36 Kg/Ha, rain 0 cm
[26] = Ray silt loam, 2.36 Kg/Ha, rain 1.27 cm
[27] = Ray silt loam, 2.36 Kg/Ha, rain 5.08 cm
[28] = Ray silt loam, 2.36 Kg/Ha, rain 10.16 cm
[29] = Ray silt loam, 0.14 Kg/Ha, rain 10.61 cm

Compound `Cc1cccc(C(F)(F)F)c1N(COCC(C)C)C(=O)CCl` [Example 5, N--(isobutoxymethyl)-2'-trifluoromethyl-6'-methyl-2-chloroacetanilide] has an inhibition at 140 g/ha (Barnyardgrass; [1]) of 12%, an inhibition at 140 g/ha (Barnyardgrass; [2]) of 26% and an inhibition at 140 g/ha (Barnyardgrass; [3]) of 20%. The inhibition at 140 g/ha (Barnyardgrass; [4]) was 12%, the inhibition at 560 g/ha (Barnyardgrass; [5]) was 50% and the inhibition at 560 g/ha (Barnyardgrass; [6]) was 100%. It also gave an inhibition at 560 g/ha (Barnyardgrass; [7]) of 93%, an inhibition at 560 g/ha (Barnyardgrass; [8]) of 84% and an inhibition at 2200 g/ha (Barnyardgrass; [9]) of 100%. The inhibition at 2200 g/ha (Barnyardgrass; [10]) was 100%, the inhibition at 2200 g/ha (Barnyardgrass; [11]) was 100% and the inhibition at 2200 g/ha (Barnyardgrass; [12]) was 100%. It also gave an inhibition at 140 g/ha (Barnyardgrass; [13]) of 84%, an inhibition at 140 g/ha (Barnyardgrass; [14]) of 90% and an inhibition at 140 g/ha (Barnyardgrass; [15]) of 58%. It also gave an inhibition at 560 g/ha (Barnyardgrass; [16]) of 99%, an inhibition at 560 g/ha (Barnyardgrass; [17]) of 99% and an inhibition at 560 g/ha (Barnyardgrass; [18]) of 90%. For the same compound, the inhibition at 560 g/ha (Barnyardgrass; [19]) was 72%, the inhibition at 2200 g/ha (Barnyardgrass; [20]) was 100% and the inhibition at 2200 g/ha (Barnyardgrass; [21]) was 100%. It also gave an inhibition at 2200 g/ha (Barnyardgrass; [22]) of 99%, an inhibition at 2200 g/ha (Barnyardgrass; [23]) of 84% and an inhibition at 140 g/ha (Barnyardgrass; [24]) of 29%. The “Fresh Weight” value (Barnyardgrass; [13]) was 0.66 Grams, the “Fresh Weight” value (Barnyardgrass; [14]) was 0.43 Grams and the “Fresh Weight” value (Barnyardgrass; [15]) was 1.72 Grams. For the same compound, the “Fresh Weight” value (Barnyardgrass; [24]) was 2.92 Grams, the “Fresh Weight” value (Barnyardgrass; [16]) was 0.04 Grams and the “Fresh Weight” value (Barnyardgrass; [17]) was 0.02 Grams. The “Fresh Weight” value (Barnyardgrass; [18]) was 0.41 Grams, the “Fresh Weight” value (Barnyardgrass; [19]) was 1.17 Grams and the “Fresh Weight” value (Barnyardgrass; [20]) was 0 Grams. For the same compound, the “Fresh Weight” value (Barnyardgrass; [21]) was 0 Grams, the “Fresh Weight” value (Barnyardgrass; [22]) was 0.03 Grams and the “Fresh Weight” value (Barnyardgrass; [23]) was 0.64 Grams.

`CCCOCN(C(=O)CCl)c1c(C)cccc1C(F)(F)F` [Example 3, N--(n-propoxymethyl)-2'-trifluoromethyl-6'-methyl-2-chloroacetanilide] was tested, and the inhibition at 140 g/ha (Barnyardgrass; [1]) was 81%, the inhibition at 140 g/ha (Barnyardgrass; [2]) was 99% and the inhibition at 140 g/ha (Barnyardgrass; [3]) was 94%. For the same compound, the inhibition at 140 g/ha (Barnyardgrass; [4]) was 54%, the inhibition at 560 g/ha (Barnyardgrass; [5]) was 100% and the inhibition at 560 g/ha (Barnyardgrass; [6]) was 100%. The inhibition at 560 g/ha (Barnyardgrass; [7]) was 100%, the inhibition at 560 g/ha (Barnyardgrass; [8]) was 100% and the inhibition at 2360 g/ha (Barnyardgrass; Drummer silt clay, 2.36 Kg/Ha, rain 0 cm) was 100%. For the same compound, the inhibition at 2360 g/ha (Barnyardgrass; Drummer silt clay, 2.36 Kg/Ha, rain 1.27 cm) was 100%, the inhibition at 2360 g/ha (Barnyardgrass; Drummer silt clay, 2.36 Kg/Ha, rain 5.08 cm) was 100% and the inhibition at 2360 g/ha (Barnyardgrass; Drummer silt clay, 2.36 Kg/Ha, rain 10.16 cm) was 100%. It also gave an inhibition at 140 g/ha (Barnyardgrass; [13]) of 99%, an inhibition at 140 g/ha (Barnyardgrass; [14]) of 95% and an inhibition at 140 g/ha (Barnyardgrass; [15]) of 63%. It also gave an inhibition at 560 g/ha (Barnyardgrass; [16]) of 100%, an inhibition at 560 g/ha (Barnyardgrass; [17]) of 100% and an inhibition at 560 g/ha (Barnyardgrass; [18]) of 94%. It also gave an inhibition at 560 g/ha (Barnyardgrass; [19]) of 52%, an inhibition at 2360 g/ha (Barnyardgrass; [25]) of 100% and an inhibition at 2360 g/ha (Barnyardgrass; [26]) of 100%. It also gave an inhibition at 2360 g/ha (Barnyardgrass; [27]) of 100%, an inhibition at 2360 g/ha (Barnyardgrass; [28]) of 95% and an inhibition at 140 g/ha (Barnyardgrass; [24]) of 14%. The “Fresh Weight” value (Barnyardgrass; [13]) was 0.05 Grams, the “Fresh Weight” value (Barnyardgrass; [14]) was 0.22 Grams and the “Fresh Weight” value (Barnyardgrass; [15]) was 1.53 Grams. For the same compound, the “Fresh Weight” value (Barnyardgrass; [24]) was 3.51 Grams, the “Fresh Weight” value (Barnyardgrass; [16]) was 0 Grams and the “Fresh Weight” value (Barnyardgrass; [17]) was 0 Grams. The “Fresh Weight” value (Barnyardgrass; [18]) was 0.24 Grams, the “Fresh Weight” value (Barnyardgrass; [19]) was 1.97 Grams and the “Fresh Weight” value (Barnyardgrass; [25]) was 0 Grams. For the same compound, the “Fresh Weight” value (Barnyardgrass; [26]) was 0 Grams, the “Fresh Weight” value (Barnyardgrass; [27]) was 0 Grams and the “Fresh Weight” value (Barnyardgrass; [28]) was 0.22 Grams.

Compound `CCOCN(C(=O)CCl)c1c(CC)cccc1C(F)(F)F` [Example 9, N--(ethoxymethyl)-2'-trifluoromethyl-6'-ethyl-2-chloroacetanilide] has a GR15 (cotton; Table XII) of 2.5 Kg/Ha and a GR15 (cotton; cotton/yellow nutsedge) of 0.7 kg/ha.

`Cc1cccc(C(F)(F)F)c1N(COC(C)C)C(=O)CCl` [Example 4, N--(isopropoxymethyl)-2'-trifluoromethyl-6'-methyl-2-chloroacetanilide] showed an inhibition at 140 g/ha (Barnyardgrass; [1]) of 70%, an inhibition at 140 g/ha (Barnyardgrass; [2]) of 96% and an inhibition at 140 g/ha (Barnyardgrass; [3]) of 85%. The inhibition at 560 g/ha (Barnyardgrass; [5]) was 100%, the inhibition at 560 g/ha (Barnyardgrass; [6]) was 100% and the inhibition at 560 g/ha (Barnyardgrass; [7]) was 100%. The inhibition at 560 g/ha (Barnyardgrass; [8]) was 96%, the inhibition at 2200 g/ha (Barnyardgrass; [9]) was 100% and the inhibition at 2200 g/ha (Barnyardgrass; [10]) was 100%. The inhibition at 2200 g/ha (Barnyardgrass; [11]) was 100%, the inhibition at 2200 g/ha (Barnyardgrass; [12]) was 100% and the inhibition at 140 g/ha (Barnyardgrass; [13]) was 98%. For the same compound, the inhibition at 140 g/ha (Barnyardgrass; [14]) was 90%, the inhibition at 140 g/ha (Barnyardgrass; [15]) was 38% and the inhibition at 140 g/ha (Barnyardgrass; [29]) was 12%. It also gave an inhibition at 560 g/ha (Barnyardgrass; [16]) of 99%, an inhibition at 560 g/ha (Barnyardgrass; [17]) of 100% and an inhibition at 560 g/ha (Barnyardgrass; [18]) of 89%. The inhibition at 560 g/ha (Barnyardgrass; [19]) was 17%, the inhibition at 2200 g/ha (Barnyardgrass; [20]) was 100% and the inhibition at 2200 g/ha (Barnyardgrass; [21]) was 100%. For the same compound, the inhibition at 2200 g/ha (Barnyardgrass; [22]) was 92%, the inhibition at 2200 g/ha (Barnyardgrass; [23]) was 71% and the inhibition at 140 g/ha (Barnyardgrass; Drummer silt clay, 0.14 Kg/Ha, rain 10.61 cm) was 47%. For the same compound, the “Fresh Weight” value (Barnyardgrass; [13]) was 0.01 Grams, the “Fresh Weight” value (Barnyardgrass; [14]) was 0.41 Grams and the “Fresh Weight” value (Barnyardgrass; [15]) was 2.77 Grams. The “Fresh Weight” value (Barnyardgrass; [29]) was 3.62 Grams, the “Fresh Weight” value (Barnyardgrass; [16]) was 0.02 Grams and the “Fresh Weight” value (Barnyardgrass; [17]) was 0 Grams. The “Fresh Weight” value (Barnyardgrass; [18]) was 0.44 Grams, the “Fresh Weight” value (Barnyardgrass; [19]) was 3.41 Grams and the “Fresh Weight” value (Barnyardgrass; [20]) was 0 Grams. For the same compound, the “Fresh Weight” value (Barnyardgrass; [21]) was 0 Grams, the “Fresh Weight” value (Barnyardgrass; [22]) was 0.31 Grams and the “Fresh Weight” value (Barnyardgrass; [23]) was 1.18 Grams.
